No end group written: not given here.

This note sets out measurements from patent US20220380430A1, “Non-Transgenic Functional Rescue of Neuropeptides” (Worcester Polytechnic Institute, priority 2021, published 2022).

This assay concerns ins-6 lof worms. Description: NaCl chemotaxis assay after rescue-by-feeding. It is filed as in vivo, C. elegans. Particulars: ins-6 mutants; 750 mM NaCl. Here is the method: All animals were maintained on bacterial lawns of OP50 E. coli, at 20° C., on NGM agar plates until the start of experiments. Mutant or control animals were transferred onto lawns of DH5α E. coli expressing either scramble peptide or the rescue peptide-of-interest on NGM plates containing […] AMP and 1 mM IPTG. Animals were reared on the peptide-expressing lawns for at least 48 hours at 20° C. before assaying for rescue of mutant phenotype at the appropriate developmental stage.
A salt chemotaxis assay was performed as previously described in Leinwand, S. G. & Chalasani, S. H. Nature neuroscience 16, 1461-1467 (2013); Bargmann, C. I. & Horvitz, H. R. Neuron 7, 729-742 (1991) to test the functionality of ins-6 after rescue-by-feeding. Wild-type (N2) and ins-6 worms were fed either scramble or INS-6 peptide passing 4-6 L4 larval onto an NGM plate containing […] AMP and 1 mM IPTG with 75 μL of peptide OD600=1.0. These worms were grown at 20° C. for about 4 days until the progeny of the initial L4 worms were young adults.
The day prior to testing, a thin, 10 mL layer of agar was added to 10 cm petri dishes to generate a 10 cm Chemotaxis Plates (5 mM KPO4 (pH 6.0), 1 μM MgSO4, 1 μM CaCl2), 20 g/L agar, and 8 g/L Difco Nutrient Broth). To prepare the “high salt” plates, 750 mM NaCl was added prior to plate pouring. The high salt plate were stored at 4° C. for up to one month, while the Chemotaxis Plates were made one day prior to testing. To create the high and low salt plugs, the back end of a Pasteur pipette was used to punch a 5 mm plug out of each plate. These 2 plugs were placed on opposite edges of the plate. A 10 mm radius was be drawn around the location of the plugs (FIG. 1). Plates were stored, lightly covered, overnight at room temperature (˜20° C., <40% humidity). […]
Young adult hermaphrodites are tested in the Chemotaxis Assay with no more than three replicates per day, over a minimum of three days, with 100-200 worms/assay plate. The […] Chemotaxis Index (CI) was calculated as follows: […]

As to “NSKLHRGGGRSRTSGSTGSMASHARGSPGLQ-NH2 [SCRAMBLE, scramble control peptide expressed in E. coli DH5α, negative control, reference compound]”, the “Chemotaxis Index” value is recorded as “less than 0.4”.
